# Measurements: patent US20200330429A1, “METHOD OF TREATING TRUNCAL ACNE WITH TRIFAROTENE” (priority 2019, published 2020)
# Experiments:
# [1] = system: moderate facial acne; assay: PERFECT 1, 12-week vehicle-controlled study, facial acne efficacy; type: in vivo, human
# Description: (§1) A multi-center (United States, Canada, Europe and Russia), 12-week, double-blinded, and vehicle controlled group study with a 1:1 randomization pattern (once daily trifarotene 50 μg/g or vehicle cream) was conducted in subjects with moderate facial and truncal acne. Enrolled patients or caregivers received instruction about how to apply a thin layer of study drug daily at bedtime on the face and self-reachable trunk. Patients were also instructed to cleanse the skin and not to apply moisturizer one hour before or one hour after study drug application. Use of moisturizer was encouraged from the initiation of treatment. Investigators could reduce the frequency of application to alternate days for a maximum of 2 weeks in the first 4 weeks following the Baseline visit when needed to manage irritation. The patients were selected based on the following criteria.
# Inclusion Criteria: • 1. Male or female patients 9 years or older. • 2. Moderate facial acne, defined as: Investigator Global Assessment (IGA) score of 3 on the face. Minimum of 20 inflammatory lesions and 25 non-inflammatory lesions on the face at Screening and Baseline • 3. Moderate truncal acne with Physician Global Assessment (PGA) score of 3 at Screening and Baseline. Minimum of 20 inflammatory lesions and 20 non-inflammatory lesions but no more than 100 non-inflammatory lesion counts on the trunk (shoulders, upper back and upper anterior chest) reachable to self-application of study drug by the subject at Screening and Baseline (optional criterion for subject between 9 and 11 years of age). • 4. Accessible treated areas of the trunk were defined for the study. The trunk anatomical region assessment was pre-defined by a size-fitted T-shirt (patent # US00D7580485, Jun. 7, 2016). This ensured consistency for study assessment areas throughout the study duration. • 5. […]
# (§2) Severity definitions for IGA and PGA scales [5-point scales ranging from 0 (clear) to 4 (severe)] were the same. Lesion counts were performed and IGA and PGA were assessed at Screening, Baseline, and Weeks 1, 2, 4, 8, and 12/ET visits. […]
# [2] = system: moderate truncal acne; assay: PERFECT 1, 12-week vehicle-controlled study, truncal acne efficacy; type: in vivo, human
# Description: as §1
# (§3) Inclusion Criteria: • 1. Male or female patients 9 years or older. • 2. Moderate facial acne, defined as: Investigator Global Assessment (IGA) score of 3 on the face. Minimum of 20 inflammatory lesions and 25 non-inflammatory lesions on the face at Screening and Baseline • 3. […]
# as §2
# [3] = system: moderate facial acne; assay: PERFECT 2, 12-week vehicle-controlled study, facial acne efficacy; type: in vivo, human
# Description: as §1
# Inclusion Criteria: • 1. Male or female patients 9 years or older. • 2. Moderate facial acne, defined as: Investigator Global Assessment (IGA) score of 3 on the face. Minimum of 20 inflammatory lesions and 25 non-inflammatory lesions on the face at Screening and Baseline • 3. Moderate truncal acne with Physician Global Assessment (PGA) score of 3 at Screening and Baseline. Minimum of 20 inflammatory lesions and 20 non-inflammatory lesions but no more than 100 non-inflammatory lesion counts on the trunk (shoulders, upper back and upper anterior chest) reachable to self-application of study drug by the subject at Screening and Baseline (optional criterion for subject between 9 and 11 years of age). • 4. Accessible treated areas of the trunk were defined for the study. The trunk anatomical region assessment was pre-defined by a size-fitted T-shirt (patent # US00D7580485, Jun. 7, 2016). This ensured consistency for study assessment areas throughout the study duration. • 5. For subjects aged 9 to 11 years, inclusion criteria regarding truncal acne were optional due to relative rarity of trunk involvement (compared with face) in this age group.
# Primary Efficacy Endpoints • Success rate, defined as the percentage of subjects who achieved an IGA score on the face of 1 (Almost Clear) or 0 (Clear) and at least a 2-grade improvement from Baseline to Week 12. • Absolute and percent change (supportive efficacy endpoint) in facial inflammatory lesion count from Baseline to Week 12. • Absolute and percent change (supportive efficacy endpoint) in facial non-inflammatory lesion count from Baseline to Week 12.
# Severity definitions for IGA and PGA scales [5-point scales ranging from 0 (clear) to 4 (severe)] were the same. Lesion counts were performed and IGA and PGA were assessed at Screening, Baseline, and Weeks 1, 2, 4, 8, and 12/ET visits.
# Trifarotene or the vehicle were applied once daily in the evening for 12 weeks. […]
# [4] = system: moderate truncal acne; assay: PERFECT 2, 12-week vehicle-controlled study, truncal acne efficacy; type: in vivo, human
# Description: as §1, §3, §2
# [5] = system: subjects with moderate facial and truncal acne; assay: PERFECT 1 safety: local tolerability and adverse events; type: in vivo, human
# Description: as §1
# (§4) Safety was assessed through adverse events, vital signs and routine laboratory testing. Safety assessments included treatment emergent adverse events (TEAE5), standard laboratory safety tests at screening and last study visit including hematology, blood chemistry, and urinalysis (Barc Central Laboratory, US and Belgium), physical examination, and monitoring of vital signs. Local tolerability signs/symptoms expected with a topical retinoid were collected separately from adverse events to better characterize the tolerability profile of trifarotene cream. These included erythema, scaling, dryness, and stinging/burning scored on a 4-point scale, none=0, mild=1, moderate=2, severe=3. Subjects were specifically queried at each study visit, including Baseline, for the presence of local signs or symptoms. Signs and/or symptoms of local cutaneous irritation assessed with the tolerability scale were considered to be Adverse Events if they were severe enough to lead to permanent discontinuation of study product treatment or required use of concomitant treatment including over-the-counter products (other than moisturizers). Subjects were assessed at screening/baseline and Weeks 1, 2, 4, 8 and 12.
# (§5) Trifarotene or the vehicle were applied once daily in the evening for 12 weeks. The liberal use of a non-comedogenic and hypoallergenic moisturizer and non-comedogenic sunscreen was allowed. Trifarotene or the vehicle were not to be applied to cuts, abrasions, eczematous, or sunburned skin.
# [6] = system: subjects with moderate facial and truncal acne; assay: PERFECT 2 safety: local tolerability and adverse events; type: in vivo, human
# Description: as §1, §4, §5
# [7] = system: subjects with moderate facial and truncal acne; assay: PERFECT 1 and PERFECT 2, statements for both studies together; type: in vivo, human
# Description: Enrolled patients or caregivers received instruction about how to apply a thin layer of study drug daily at bedtime on the face and self-reachable trunk. Patients were also instructed to cleanse the skin and not to apply moisturizer one hour before or one hour after study drug application. Use of moisturizer was encouraged from the initiation of treatment. […] The patients were selected based on the following criteria. […] Lesion counts were performed and IGA and PGA were assessed at Screening, Baseline, and Weeks 1, 2, 4, 8, and 12/ET visits. Safety was assessed through adverse events, vital signs and routine laboratory testing. Safety assessments included treatment emergent adverse events (TEAE5), standard laboratory safety tests at screening and last study visit including hematology, blood chemistry, and urinalysis (Barc Central Laboratory, US and Belgium), physical examination, and monitoring of vital signs. Local tolerability signs/symptoms expected with a topical retinoid were collected separately from adverse events to better characterize the tolerability profile of trifarotene cream. […] Subjects were specifically queried at each study visit, including Baseline, for the presence of local signs or symptoms. Signs and/or symptoms of local cutaneous irritation assessed with the tolerability scale were considered to be Adverse Events if they were severe enough to lead to permanent discontinuation of study product treatment or required use of concomitant treatment including over-the-counter products (other than moisturizers). […] Trifarotene or the vehicle were applied once daily in the evening for 12 weeks. The liberal use of a non-comedogenic and hypoallergenic moisturizer and non-comedogenic sunscreen was allowed. Trifarotene or the vehicle were not to be applied to cuts, abrasions, eczematous, or sunburned skin.
# [8] = system: moderate truncal acne; assay: SATisFy 52-week study, truncal acne efficacy; type: in vivo, human
# Description: (§6) A multi-center, 52-week, […] group study (SATisFy) with once daily trifarotene 50 μg/g was conducted in subjects with moderate facial and truncal acne. The screening/baseline weeks were 1, 2, 4, 8, 12, 20, 26, 38 & week 52. Inclusion/exclusion criteria and assessment are as described in Example 1, unless mentioned otherwise. Additional assessments may include subject's facial acne assessment, quality of life (DLQI and CDLQI) and standard facial and trunk photography.
# (§7) Efficacy • Success rate: IGA/PGA score of 2 grade in improvement and Clear (0) or Almost Clear (1) • Grade change from baseline of IGA & PGA • Subject's assessment of facial acne improvement.
# [9] = system: moderate facial acne; assay: SATisFy 52-week study, facial acne efficacy and quality of life; type: in vivo, human
# Description: as §6, §7
# [10] = system: keratinocytes; conditions: cited from earlier work
# [11] = hepatic microsomes; cited from earlier work
# [12] = week 12, trunk population, SATisFy
# [13] = week 52, trunk population, SATisFy
structure (smiles),measurement,setting,value
"CC(C)(C)c1cc(-c2cc(-c3ccc(C(=O)O)cc3)ccc2OCCO)ccc1N1CCCC1 [trifarotene, 3″-tert-Butyl-4′-(2-hydroxy-ethoxy)-4″-pyrrolidin-1-yl-[1,1′,3′,1″]terphenyl-4-carboxylic acid]","statistically significant superior facial IGA success rates vs vehicle, at week",[1]; PERFECT 1,4 week
same,Inflammatory Lesions Mean Absolute Change from baseline,"[1]; face, Week 12, PERFECT 1",−19.0
same,IGA Success (%),"[1]; face, Week 12, PERFECT 1, 50 μg/g once daily",29.4%
same,"statistically significantly superior reductions in inflammatory and non-inflammatory lesions on the trunk, starting by week",[2]; PERFECT 1,4 week
same,PGA Success (%),"[2]; trunk, Week 12, PERFECT 1",35.7%
same,"statistically significant superior facial IGA success rates vs vehicle, at week",[3]; PERFECT 2,8 week
same,Inflammatory Lesions Mean Absolute Change from baseline,"[3]; face, Week 12, PERFECT 2",−24.2
same,Non-inflammatory Lesions Mean Absolute Change from baseline,"[3]; face, Week 12, PERFECT 2",−30.1
same,IGA Success (%),"[3]; face, Week 12, PERFECT 2, 50 μg/g once daily",42.3%
same,"statistically significantly superior reductions in inflammatory and non-inflammatory lesions on the trunk, starting by week",[4]; PERFECT 2,2 week
same,PGA Success (%),"[4]; trunk, Week 12, PERFECT 2",42.6%
same,"Severe AEs considered related to trifarotene therapy, subjects",[5],6 subjects
same,"Severe related AE: dermatitis allergic, number",[5],1
same,"Severe related AE: skin irritation, number",[5],4
same,"Severe related AE: sunburn, number",[5],1
same,"Severe AEs considered related to trifarotene therapy, subjects",[6],3 subjects
same,"Severe related AE: application site erosion, number",[6],1
same,"Severe related AE: application site irritation, number",[6],1
same,"Severe related AE: application site pain, number",[6],1
same,"changes in vital signs, physical exams and laboratory parameters",[7]; PERFECT 1 and PERFECT 2,no significant clinically relevant changes
same,serious AEs,[7]; PERFECT 1 and PERFECT 2,no AE was serious
same,"success rates on the trunk statistically significant vs vehicle, starting at week",[7]; both studies,8 week
same,"facial lesion count reductions, statistical differences vs vehicle apparent as early as week",[7]; face,1-2 week
same,overall success rate in same subject for truncal acne,[8]; Wk12 (87/396),22.0%
same,overall success rate in same subject for truncal acne,[8]; Wk20 (138/375),36.8%
same,overall success rate in same subject for truncal acne,[8]; Wk26 (157/363),43.3%
same,overall success rate in same subject for truncal acne,[8]; Wk38 (177/355),49.9%
same,overall success rate in same subject for truncal acne,[8]; Wk52 (199/344),57.9%
same,PGA success rates,[8]; [12],38.6%
same,trunk IGA success rates,[8]; [12],26.6%
same,success rates (IGA),[8]; [13],65.1%
same,success rates (PGA),[8]; [13],66.9%
same,"success rates, facial acne",[9]; Wk12 (166/401),41.4%
same,"success rates, facial acne",[9]; Wk26 (201/367),54.8%
same,"success rates, facial acne",[9]; Wk52 (233/350),66.6%
same,subjects who reported that acne had no effect on quality of life,"[9]; week 52 (92/171), 22.6% at Baseline",53.8%
same,metabolic stability,[10],metabolically stable
same,metabolism,[11],rapidly metabolized
